Reference: US11034725B2, “Compositions and methods for treating cardiovascular disease” (Genentech, Inc., priority 2016, dated 2021)
“Also recorded” adds a separate entry of the source. Read-outs that look alike come from different tables or passages of the source. Bridge positions count the residues as written; N and C are the ends. Peptide text beside a SMILES is read from it. * marks the point of attachment. 5FAM = O=C1OC2(c3ccc(O)cc3Oc3cc(O)ccc32)c2ccc(C(=O)*)cc21

Legend:
PCSK9Δhelix [1] = biological target: T1, PCSK9Δhelix (Homo sapiens, UniProt Q8NBP7); assay: Surface plasmon resonance biosensor-based affinity analysis (Example 4); format: binding; conditions: for Kd: Table 7, Target PCSK9Δhelix, SPR at 20° C., read-out: Kd
T1 construct: Human PCSK9 construct M1-Q692 with an engineered TEV site (residue deletion Y166, R167); made in house; host or cells: CHO

PCSK9 = PCSK9 (Homo sapiens, UniProt Q8NBP7); assay: PCSK9/EGF(A) TR-FRET binding assay; conditions: for IC50: TR-FRET, read-out: PCSK9/EGF(A) IC50
PCSK9Δhelix [2] = biological target: T1, PCSK9Δhelix; assay: SPR affinity measurements of peptide binding (Example 8); conditions: for Kd: Table 10, binding to PCSK9Δhelix
Experimental: A Biacore™ T100 or Biacore™ 8K was adjusted to 20° C. The system was primed into assay buffer which consisted of 25 mM HEPES, pH 7.5, 0.15 M NaCl, 0.005% (v/v) Tween® 20, 0.2 mM tris(2-carboxyethyl)phosphine and optionally contained 0.1% (w/v) carboxymethylated dextran (average MW 10 kDa) and 0.2% (w/v) PEG (average MW 3450 Da) in order to reduce potential non-specific binding. Peptides were assayed by capturing fresh PCSK9 or PCSK9Δhelix after each binding regeneration cycle by exploiting a histidine tag and an NTA-sensor chip. The surface was charged with (His)8-tagged PCSK9 (approximately 800 RU captured). […] Compound 19 and Compound 20 were assayed in six serial two-fold dilutions from 100 nM to 3.1 nM. All peptides were analyzed in duplicate by serial injection (50 μL/min for 1 min) of peptide dilution from low to high concentration. The surface was then stripped of target by injecting 0.5 M EDTA, pH 8.0. This sequence was repeated for each peptide binding cycle and blank control cycles.
All SPR data was recorded in duplicate for five, or more serial dilutions, except for the two fusion peptides, which produced extremely low fitting error. Multicycle data (i.e. separate curves for each concentration) and single cycle data (i.e. single curve with serial injection of each concentration) were double referenced and fitted to an interaction model using BIAevaluation software. Peptide binding to PCSK9 produced deviations from a simple 1:1 binding interaction model that required application of a two-state model for determination of Kd while interactions with PCSK9Δhelix conformed well to simple 1:1 binding. Kinetic curvature was poorly defined for rapidly dissociating peptides and in these cases Kd was estimated from a steady-state dose response plot. Kd values were reported with associated standard error, a measure of confidence in that parameter value.

His-EGF(A)-Fc = His-EGF(A)-Fc TR-FRET counterscreen
PCSK9Δhelix [3] = biological target: T1, PCSK9Δhelix; assay: PCSK9Δhelix/Ab20 TR-FRET binding assay
[4] = biological target: T2, PCSK9-R167A:R215A:R218A (PCSK9-AAA) (Homo sapiens, UniProt Q8NBP7, R167A/R215A/R218A); assay: FXIa cleavage assay of the P′ helix of PCSK9-AAA; format: biochemical; conditions: immunoblot with anti-N-terminal peptide antibody
T2 construct: made in house; host or cells: CHO (transient)
Experimental: The PCSK9-AAA mutant (2.6 μM) was incubated with 50 nM FXIa (Haematologic Technologies) in Tris buffer (50 mM Tris, 150 mM NaCl, 4 mM CaCl2, pH 8.0) at room temperature for the indicated time periods. […] After SDS-PAGE of the samples, proteins were transferred to a nitrocellulose membrane using iBlot (Invitrogen). Proteins were then probed with a polyclonal rabbit antibody (1:3000) raised against the PCSK9 N-terminal peptide (^153[…]^168 (SEQ ID NO: 5)), followed with HRP-conjugated donkey anti-rabbit antibody (1:5000, GE Healthcare) using iBind (Invitrogen). PCSK9 signals were detected by ECL (GE Healthcare) and visualized by autoradiography.
Proteins were then probed with a polyclonal rabbit antibody (1:3000) raised against the PCSK9 N-terminal peptide (^153[…]^168 (SEQ ID NO: 5)), followed with HRP-conjugated donkey anti-rabbit antibody (1:5000, GE Healthcare) using iBind (Invitrogen). PCSK9 signals were detected by ECL (GE Healthcare) and visualized by autoradiography.

[5] = TR-FRET, Example 7, read-out: PCSK9Δhelix/Ab20 IC50
[6] = Table 10, average ±S.D. of three experiments, read-out: Ab20 IC50
[7] = Table 8D, disulfide-cyclized extension peptides
[8] = TR-FRET counterscreen, Table 8D, * = some inhibition at highest concentrations, not sufficient to fit an IC50
[9] = TR-FRET, Table 8D, disulfide-cyclized extension peptides, read-out: PCSK9Δhelix/Ab20 IC50

| Molecule | Kd (PCSK9Δhelix [1]) | IC50 (PCSK9; Example 7) | IC50 (His-EGF(A)-Fc; counterscreen, Example 7) | IC50 (PCSK9Δhelix [3]; [5]) | further results |
| --- | --- | --- | --- | --- | --- |
| Ac-LMPWNLVRIGLLR-NH2 [Compound 50] | 1600 nM | > 50 µM | > 50 µM | 2.66 µM | Kd (PCSK9Δhelix [2]): 470 nM; IC50 (PCSK9Δhelix [3]; [6]): 3.6 ± 0.2 µM |
| CC[C@H](C)[C@@H]1NC(=O)[C@H](CCCNC(=N)N)NC(=O)[C@H](CCCCN)NC(=O)[C@H](CC(C)C)NC(=O)[C@H](CC(N)=O)NC(=O)[C@H](Cc2c[nH]c3ccccc23)NC(=O)[C@H](CC(C)C)NC(=O)[C@@H](NC(=O)[C@H](Cc2ccccc2)NC(C)=O)CSSC[C@@H](C(=O)N[C@@H](Cc2c[nH]c3ccccc23)C(=O)N[C@@H](Cc2ccccc2)C(N)=O)NC(=O)[C@H](CCC(N)=O)NC(=O)[C@H](C)NC(=O)CNC1=O [Compound 96] (Ac-FCLWNLKRIGAQCWF-NH2; disulfide 2-13 (inferred)) | 2500 nM |  |  |  |  |
| Ac-WNLVRIGLLR-NH2 [Compound 53] | 33800 nM | > 50 µM | > 50 µM | 33.1 µM | Kd (PCSK9Δhelix [2]): 14000 nM; reduction of binding affinity (PCSK9Δhelix [2]; Table 10, elimination of Pro4): 10 fold; IC50 (PCSK9Δhelix [3]; [6]): 52.4 ± 3.4 µM |
| Ac-TVATSAEEYLLWV-NH2 [Pep2-8-ctrl, reference compound] |  |  |  |  | effect on FXIa-mediated cleavage of the P′ helix of PCSK9-AAA [4]: did not prevent cleavage; effect on FXIa-mediated cleavage of the P′ helix of PCSK9-AAA ([4]; listed as control peptide): did not inhibit cleavage |
| Ac-MPWNLVRIGLLR-NH2 [Compound 51] | 2700 nM | > 50 µM | > 50 µM | 4.69 µM | Kd (PCSK9Δhelix [2]): 1400 nM; IC50 (PCSK9Δhelix [3]; [6]): 6.6 ± 0.3 µM |
| H-SGDLMPWNLVRIGLLR-OH [Compound 28] | 856 nM |  |  |  |  |
| Ac-ALMPWNLVRIGLLR-NH2 [Compound 45] | 8200 nM | > 50 µM | > 50 µM | 2.02 µM |  |
| CC[C@H](C)[C@@H]1NC(=O)[C@H](CCCNC(=N)N)NC(=O)[C@H](CCC(N)=O)NC(=O)[C@H](CC(C)C)NC(=O)[C@H](CC(N)=O)NC(=O)[C@H](Cc2c[nH]c3ccccc23)NC(=O)[C@@H]2CCCN2C(=O)[C@H]([C@@H](C)CC)NC(=O)[C@H](Cc2ccccc2)NC(=O)[C@@H](NC(C)=O)CSSC[C@@H](C(N)=O)NC(=O)[C@H](CC(C)C)NC(=O)[C@H](CC(C)C)NC(=O)CNC1=O [Compound 31] (Ac-CFIPWNLQRIGLLC-NH2; disulfide 1-14) | 3010 nM |  |  |  | IC50 (PCSK9; [7]): > 50 µM; IC50 (His-EGF(A)-Fc; [8]): > 50 µM; IC50 (PCSK9Δhelix [3]; [9]): 2.4 µM |
| Ac-DLMPWNLVRIGLLR-NH2 [Compound 35] |  | > 50 µM | > 50 µM | 4.8 µM | Kd (PCSK9Δhelix [2]): 1380 nM; IC50 (PCSK9Δhelix [3]; [6]): 7.9 ± 0.1 µM |
| Ac-DLMPWNLVRIGLAR-NH2 [Compound 55] | 2800 nM | > 50 µM | > 50 µM | 9.7 µM |  |
| CC[C@H](C)[C@@H]1NC(=O)[C@H](CCCNC(=N)N)NC(=O)[C@H](CCC(N)=O)NC(=O)[C@H](CC(C)C)NC(=O)[C@H](CC(N)=O)NC(=O)[C@H](Cc2c[nH]c3ccccc23)NC(=O)[C@@H]2CCCN2C(=O)[C@H]([C@@H](C)CC)NC(=O)[C@H](Cc2ccccc2)NC(=O)[C@@H](NC(=O)CNC(=O)[C@H](CO)NC(=O)CNC(=O)[C@H](CO)NC(=O)c2ccc3c(c2)C(=O)OC32c3ccc(O)cc3Oc3cc(O)ccc32)CSSC[C@@H](C(N)=O)NC(=O)[C@H](CC(C)C)NC(=O)[C@H](CC(C)C)NC(=O)CNC1=O [Compound 33] (5FAM-SGSGCFIPWNLQRIGLLC-NH2; disulfide 5-18) | 10000 nM |  |  |  |  |
| CC[C@H](C)[C@@H]1NC(=O)[C@H](CCCNC(=N)N)NC(=O)[C@H](CCC(N)=O)NC(=O)[C@H](CC(C)C)NC(=O)[C@H](CC(N)=O)NC(=O)[C@H](Cc2c[nH]c3ccccc23)NC(=O)[C@@H]2CCCN2C(=O)[C@H]([C@@H](C)CC)NC(=O)[C@H](Cc2ccccc2)NC(=O)[C@@H](NC(=O)CNC(=O)[C@H](CO)NC(C)=O)CSSC[C@@H](C(N)=O)NC(=O)[C@H](CC(C)C)NC(=O)[C@H](CC(C)C)NC(=O)CNC1=O [Compound 29] (Ac-SGCFIPWNLQRIGLLC-NH2; disulfide 3-16) |  |  |  |  | IC50 (PCSK9; [7]): > 50 µM; effect on FXIa-mediated cleavage of the P′ helix of PCSK9-AAA [4]: accelerated the cleavage reaction; also recorded: able to increase the FXIa-mediated cleavage; also recorded: strongly accelerated the cleavage; IC50 (His-EGF(A)-Fc; [8]): > 50 µM; IC50 (PCSK9Δhelix [3]; [9]): 1.9 µM |
| CC[C@H](C)[C@@H]1NC(=O)[C@H](CCCNC(=N)N)NC(=O)[C@H](CCCCN)NC(=O)[C@H](CC(C)C)NC(=O)[C@H](CC(N)=O)NC(=O)[C@H](Cc2c[nH]c3ccccc23)NC(=O)[C@@H](NC(=O)CCCCCNC(=O)[C@@H](NC(=O)[C@H](Cc2c[nH]c3ccccc23)NC(=O)[C@H](CC(=O)O)NC(=O)[C@H](CC(C)C)NC(=O)[C@H](Cc2ccc(O)cc2)NC(=O)[C@H](CCC(=O)O)NC(=O)[C@H](CCC(=O)O)NC(=O)[C@H](Cc2c[nH]c3ccccc23)NC(=O)[C@H](CO)NC(=O)[C@@H](NC(=O)[C@H](Cc2ccccc2)NC(=O)[C@@H](NC(=O)[C@@H](NC(C)=O)[C@@H](C)O)C(C)C)[C@@H](C)O)C(C)C)CSSC[C@@H](C(N)=O)NC(=O)CNC(=O)[C@H](CCC(N)=O)NC(=O)[C@H](CO)NC(=O)CNC1=O [Compound 17] | 0.123 nM | 0.009 µM | > 50 µM | 0.001 µM | Kd range for PCSK9Δhelix binding (PCSK9Δhelix [1]): sub-nanomolar range; inhibition in the PCSK9/EGF(A) binding assay (PCSK9): maintained potency; inhibition in the PCSK9Δhelix/Ab20 binding assay (PCSK9Δhelix [3]): maintained potency |
| CC[C@H](C)[C@@H]1NC(=O)[C@H](CCCNC(=N)N)NC(=O)[C@H](CCCCN)NC(=O)[C@H](CC(C)C)NC(=O)[C@H](CC(N)=O)NC(=O)[C@H](Cc2c[nH]c3ccccc23)NC(=O)[C@@H](NC(=O)CNC(=O)[C@H](CO)NC(=O)CNC(=O)[C@@H](NC(=O)[C@H](Cc2c[nH]c3ccccc23)NC(=O)[C@H](CC(=O)O)NC(=O)[C@H](CC(C)C)NC(=O)[C@H](Cc2ccc(O)cc2)NC(=O)[C@H](CCC(=O)O)NC(=O)[C@H](CCC(=O)O)NC(=O)[C@H](Cc2c[nH]c3ccccc23)NC(=O)[C@H](CO)NC(=O)[C@@H](NC(=O)[C@H](Cc2ccccc2)NC(=O)[C@@H](NC(=O)[C@@H](NC(C)=O)[C@@H](C)O)C(C)C)[C@@H](C)O)C(C)C)CSSC[C@@H](C(N)=O)NC(=O)CNC(=O)[C@H](CCC(N)=O)NC(=O)[C@H](CO)NC(=O)CNC1=O [Compound 2] (Ac-TVFTSWEEYLDWVGSGCWNLKRIGSQGC-NH2; disulfide 17-28) | 1.87 nM |  | > 50 µM | 0.004 µM |  |
| EGFA-Fc: Fc fusion protein of the EGFA domain of LDLR |  |  |  |  | effect on FXIa-mediated cleavage of the P′ helix of PCSK9-AAA [4]: largely prevented cleavage |
